Counter-ions that a name gives are not always drawn. Where only a bound is given, the exact number is not on record here.

In the assay the target is h12/15-LOX (Homo sapiens (Human), UniProt P16050). Kind of assay: 12/15-LOX enzyme inhibition IC50 assay (Examples 1 and 2). Type of assay: biochemical. The note with it: for Emax: h12/15-LOX, read-out: Max % inhibition. As to the method: Enzyme was then added to the cuvettes. […] The % inhibition for each test compound concentration were calculated as follows: […]
Chain of h12/15-LOX (P16050 whole entry): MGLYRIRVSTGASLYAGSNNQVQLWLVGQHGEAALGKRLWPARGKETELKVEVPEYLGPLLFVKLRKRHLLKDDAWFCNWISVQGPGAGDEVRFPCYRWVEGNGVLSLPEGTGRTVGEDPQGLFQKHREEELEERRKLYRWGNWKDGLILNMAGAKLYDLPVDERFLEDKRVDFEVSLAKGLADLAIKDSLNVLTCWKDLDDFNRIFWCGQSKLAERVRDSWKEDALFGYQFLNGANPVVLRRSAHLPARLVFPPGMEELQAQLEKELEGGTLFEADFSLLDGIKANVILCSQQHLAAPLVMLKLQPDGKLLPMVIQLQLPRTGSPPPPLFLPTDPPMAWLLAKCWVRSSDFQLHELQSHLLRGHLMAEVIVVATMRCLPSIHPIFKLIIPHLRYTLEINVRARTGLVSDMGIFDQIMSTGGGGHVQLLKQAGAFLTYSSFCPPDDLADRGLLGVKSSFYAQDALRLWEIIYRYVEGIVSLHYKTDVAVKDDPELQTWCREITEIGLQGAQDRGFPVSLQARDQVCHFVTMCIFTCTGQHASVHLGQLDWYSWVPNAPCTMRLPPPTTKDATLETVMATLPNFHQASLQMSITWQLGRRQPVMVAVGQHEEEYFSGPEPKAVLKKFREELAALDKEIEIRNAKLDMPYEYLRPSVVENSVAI

Regarding `COCCOCCNc1oc(-c2cc(Cl)cc(Cl)c2C)nc1C#N` [Compound 34], the Emax came to 100%.

Take `N#Cc1nc(-c2cc(Cl)cc(Cl)c2Cl)oc1NCCOCCOCC(F)(F)F` [Compound 71, 2-(2,3,5-Trichlorophenyl)-5-((2-(2-(2,2,2-trifluoroethoxy)ethoxy)ethyl)amino)oxazole-4-carbonitrile]: inhibition was half-maximal at 160 nM (IC50) and the Emax is 95%.

Turning to `CNc1oc(-c2cc(Cl)cc(Cl)c2F)nc1C#N` [Compound 3, 2-(3,5-Dichloro-2-fluorophenyl)-5-(methylamino)oxazole-4-carbonitrile], the IC50 turned out to be 330 nM and the Emax is 88%.

`CN(C)CCCC(=O)Nc1oc(-c2cc(Cl)cc(Cl)c2Cl)nc1C#N` [Compound 65, N-(4-Cyano-2-(2,3,5-trichlorophenyl)oxazol-5-yl)-4-(dimethylamino)butanamide hydrochloride]: the concentration for half-maximal inhibition (IC50) is above 20000 nM.

On to `CN(CCOCCNc1oc(-c2cc(Cl)cc(Cl)c2Cl)nc1C#N)c1ccncc1` [Compound 90, 5-((2-(2-(Methyl(pyridin-4-yl)amino)ethoxy)ethyl)amino)-2-(2,3,5-trichlorophenyl)oxazole-4-carbonitrile], for which the half-maximal inhibitory concentration (IC50) was above 20000 nM.

Turning to `N#Cc1nc(-c2cc(Cl)cc(Cl)c2Cl)oc1NCCOCCNc1ccncc1` [Compound 91, 5-((2-(2-(Pyridin-4-ylamino)ethoxy)ethyl)amino)-2-(2,3,5-trichlorophenyl)oxazole-4-carbonitrile], the IC50 was above 20000 nM.

For the compound `CNc1oc(-c2cc(C(F)(F)F)cc(Cl)c2Cl)nc1C#N` [Compound 12, 2-(2,3-Dichloro-5-(trifluoromethyl)phenyl)-5-(methylamino)oxazole-4-carbonitrile], the half-inhibitory concentration (IC50) was above 20000 nM and the Emax was 41%.

For the compound `CNc1oc(-c2cc(Cl)cc(F)c2Cl)nc1C#N` [Compound 7], the half-inhibitory concentration (IC50) is above 20000 nM and the Emax turned out to be 37%.

Take `CNc1oc(-c2cc(Cl)cc(C(F)(F)F)c2Cl)nc1C#N` [Compound 8, 2-(2,5-Dichloro-3-(trifluoromethyl)phenyl)-5-(methylamino)oxazole-4-carbonitrile]: the IC50 stood at 81 nM and the Emax came out at 94%.

With `COCCOCCNc1oc(-c2cc(Cl)cc(C)c2Cl)nc1C#N` [Compound 36, 2-(2,5-Dichloro-3-methylphenyl)-5-((2-(2-methoxyethoxy)ethyl)amino)oxazole-4-carbonitrile], the midpoint of inhibition, the IC50, lay at 1100 nM and the Emax came to 100%.

Consider `CN(CCOCCNc1oc(-c2cc(Cl)cc(Cl)c2Cl)nc1C#N)c1ccccc1` [Compound 95, 5-((2-(2-(Methyl(phenyl)amino)ethoxy)ethyl)amino)-2-(2,3,5-trichlorophenyl)oxazole-4-carbonitrile], for which half-maximal inhibition (IC50) required 260 nM and the Emax was determined as 83%.

In the case of `N#Cc1nc(-c2cc(Cl)cc(Cl)c2Cl)oc1NCCOCCOc1cncnc1` [Compound 82, 5-((2-(2-(Pyrimidin-5-yloxy)ethoxy)ethyl)amino)-2-(2,3,5-trichlorophenyl)oxazole-4-carbonitrile], the half-inhibitory concentration (IC50) came to 360 nM and the Emax is 82%.

For the compound `CN(CCOCCNc1oc(-c2cc(Cl)cc(Cl)c2Cl)nc1C#N)CC(F)(F)F` [Compound 73, 5-((2-(2-(Methyl(2,2,2-trifluoroethyl)amino)ethoxy)ethyl)amino)-2-(2,3,5-trichlorophenyl)oxazole-4-carbonitrile], the IC50 is 470 nM and the Emax was found to be 70%.

`N#Cc1nc(-c2cc(Cl)cc(Cl)c2Cl)oc1NCC#CCOCc1ccc(CCN2CCOCC2)cc1` [Compound 86]: the Emax was 100%.

With `N#Cc1nc(-c2cc(Cl)cc(Cl)c2Cl)oc1NCCOCCOc1ccncc1` [Compound 97, 5-((2-(2-(Pyridin-4-yloxy)ethoxy)ethyl)amino)-2-(2,3,5-trichlorophenyl)oxazole-4-carbonitrile], the IC50 came to 110 nM and the Emax was 68%.

On to `COc1cnccc1OCCOCCNc1oc(-c2cc(Cl)cc(Cl)c2Cl)nc1C#N` [Compound 99, 5-((2-(2-((3-Methoxypyridin-4-yl)oxy)ethoxy)ethyl)amino)-2-(2,3,5-trichlorophenyl)oxazole-4-carbonitrile], for which 1700 nM corresponded to half-maximal inhibition (IC50) and the Emax was found to be 66%.

The compound `N#Cc1nc(-c2cc(Cl)cc(Cl)c2Cl)oc1NCCOCCN1CCC(F)CC1` [Compound 80, 5-((2-(2-(4-Fluoropiperidin-1-yl)ethoxy)ethyl)amino)-2-(2,3,5-trichlorophenyl)oxazole-4-carbonitrile] returned an IC50 above 20000 nM.

In turn, `CN(C)CCCNC(=O)Nc1oc(-c2cc(Cl)cc(Cl)c2Cl)nc1C#N` [Compound 67, 1-(4-cyano-2-(2,3,5-trichlorophenyl)oxazol-5-yl)-3-(3-(dimethylamino)propyl) urea hydrochloride] returned an IC50 above 20000 nM.

With `COCCNc1oc(-c2cc(Cl)cc(Cl)c2OC(F)F)nc1C#N` [Compound 40, 2-(3,5-Dichloro-2-(difluoromethoxy)phenyl)-5-((2-methoxyethyl)amino)oxazole-4-carbonitrile], half-maximal inhibition (IC50) required 290 nM and the Emax was found to be 94%.

In turn, `CN(C)CCCNC(=O)N(C)c1oc(-c2cc(Cl)cc(Cl)c2Cl)nc1C#N` [Compound 66, 1-(4-cyano-2-(2,3,5-trichlorophenyl)oxazol-5-yl)-3-(3-(dimethylamino)propyl)-1-methylurea hydrochloride] had an IC50 above 20000 nM.

In the case of `CNc1oc(-c2c(Cl)ccc(Cl)c2Cl)nc1C#N`, the IC50 is above 20000 nM and the Emax is 32%.

As for `N#Cc1nc(-c2cc(Cl)cc(Cl)c2Cl)oc1NCCOCCOCCF` [Compound 70, 5-((2-(2-(2-Fluoroethoxy)ethoxy)ethyl)amino)-2-(2,3,5-trichlorophenyl)oxazole-4-carbonitrile], the midpoint of inhibition, the IC50, lay at 1100 nM and the Emax is 110%.

As for `N#Cc1nc(-c2cc(Cl)cc(Cl)c2Cl)oc1NCCOCCN1CCCC(F)C1` (centres unmarked) [Compound 74, 5-((2-(2-(3-Fluoropiperidin-1-yl)ethoxy)ethyl)amino)-2-(2,3,5-trichlorophenyl)oxazole-4-carbonitrile], the IC50 is above 20000 nM.

Take `N#Cc1nc(-c2cc(Cl)cc(Cl)c2Cl)oc1NCCOCCN1CC(F)(F)C1` [Compound 72, 5-((2-(2-(3,3-Difluoroazetidin-1-yl)ethoxy)ethyl)amino)-2-(2,3,5-trichlorophenyl)oxazole-4-carbonitrile]: the half-maximal inhibitory concentration (IC50) is above 20000 nM.

The compound `COCCOC(=O)N(C)c1oc(-c2cc(Cl)cc(Cl)c2Cl)nc1C#N` [Compound 55, 2-Methoxyethyl (4-cyano-2-(2,3,5-trichlorophenyl)oxazol-5-yl)(methyl)carbamate] showed an IC50 above 20000 nM.

Turning to `COCCOCCNc1oc(-c2cc(Cl)cc(Cl)c2F)nc1C#N` [Compound 35, 2-(3,5-Dichloro-2-fluorophenyl)-5-((2-(2-methoxyethoxy)ethyl)amino)oxazole-4-carbonitrile], half-maximal inhibition (IC50) was put at 3000 nM and the Emax is 100%.

Take `COCCOCCNc1oc(-c2cc(C)cc(Cl)c2Cl)nc1C#N` [Compound 38, 2-(2,3-Dichloro-5-methylphenyl)-5-((2-(2-methoxyethoxy)ethyl)amino)oxazole-4-carbonitrile]: the midpoint of inhibition, the IC50, lay at 6600 nM and the Emax came out at 100%.

Compound `CN(C)CCCOC(=O)Nc1oc(-c2cc(Cl)cc(Cl)c2Cl)nc1C#N` [Compound 57, 3-(dimethylamino) propyl (4-cyano-2-(2,3,5-trichlorophenyl)oxazol-5-yl) carbamate hydrochloride] came in with a 50% inhibitory concentration (IC50) above 20000 nM.

For the compound `N#Cc1nc(-c2cc(Cl)cc(Cl)c2OC(F)F)oc1NCCCCCO` [Compound 23, 2-(3,5-Dichloro-2-(difluoromethoxy)phenyl)-5-((5-hydroxypentyl)amino)oxazole-4-carbonitrile], the IC50 is 2000 nM and the Emax worked out at 97%.

On to `CN(c1oc(-c2cc(Cl)cc(Cl)c2Cl)nc1C#N)P(=O)(O)O` [Compound 68, (4-cyano-2-(2,3,5-trichlorophenyl)oxazol-5-yl)(methyl)phosphoramidic acid], for which the half-inhibitory concentration (IC50) was above 20000 nM.

In the case of `N#Cc1nc(-c2cc(Cl)cc(Cl)c2Cl)oc1NCC#CCOCc1ccc(OCCN2CCOCC2)cc1` [Compound 87], the Emax stood at 94%.

In the case of `COCCOC(=O)Nc1oc(-c2cc(Cl)cc(Cl)c2Cl)nc1C#N` [Compound 58, 2-Methoxyethyl (4-cyano-2-(2,3,5-trichlorophenyl)oxazol-5-yl)carbamate], the 50% inhibitory concentration (IC50) is above 20000 nM.

In the case of `N#Cc1nc(-c2cc(Cl)cc(Cl)c2Cl)oc1NCCOCCOCCOc1ccncc1` [Compound 100, 5-((2-(2-(2-(Pyridin-4-yloxy)ethoxy)ethoxy)ethyl)amino)-2-(2,3,5-trichlorophenyl)oxazole-4-carbonitrile], the IC50 was above 20000 nM.

As to `N#Cc1nc(-c2cc(Cl)cc(Cl)c2Cl)oc1NCC#CCOCc1ccc(C(=O)O)cc1` [Compound 89, 4-(((4-((4-Cyano-2-(2,3,5-trichlorophenyl)oxazol-5-yl)amino)but-2-yn-1-yl)oxy)methyl)benzoic acid], the IC50 was 1300 nM and the Emax is 100%.

In the case of `Cc1c(Cl)cc(Cl)cc1-c1nc(C#N)c(NCCOCCO)o1` [Compound 30], the Emax was 100%.

On to `CNc1oc(-c2cc(Cl)cc(C)c2Cl)nc1C#N` [Compound 6, 2-(2,5-Dichloro-3-methylphenyl)-5-(methylamino)oxazole-4-carbonitrile], for which the 50% inhibitory concentration (IC50) was determined as 180 nM and the Emax came out at 99%.

`N#Cc1nc(-c2cc(Cl)cc(Cl)c2Cl)oc1NCCOCCNc1ccccc1` [Compound 81, 5-((2-(2-(Phenylamino)ethoxy)ethyl)amino)-2-(2,3,5-trichlorophenyl)oxazole-4-carbonitrile]: the half-inhibitory concentration (IC50) was 260 nM and the Emax was 95%.

On to `Cc1cc(OCCOCCNc2oc(-c3cc(Cl)cc(Cl)c3Cl)nc2C#N)cc(C)n1` [Compound 83, 5-((2-(2-((2,6-Dimethylpyridin-4-yl)oxy)ethoxy)ethyl)amino)-2-(2,3,5-trichlorophenyl)oxazole-4-carbonitrile], for which the concentration for half-maximal inhibition (IC50) is 180 nM and the Emax is 61%.

(Values after patent publication US20240336642A1 (The General Hospital Corporation, priority 2021, published 2024).)
